Results as given in PubChem BioAssay AID179 (DTP/NCI, 2004).
“And” between values parts separate entries of the source, which are not always exact repeats. Equal entries are not always repeated. The source made the active and inactive calls.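 Rule for the calls: active = compounds giving half or more protection of infected cells from virus-caused growth loss, again on retest; inactive = the rest.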 Where a SMILES comes first, the peptide text is derived from it. Bridges are numbered along the chain shown (N, C = ends). [ ]: non-standard residue; d: D form. The star is where a group is joined. ξ: configuration not given here. Dnp = O=[N+]([O-])c1ccc(*)c([N+](=O)[O-])c1; Bz = O=C(c1ccccc1)*; ξC = NC(CS)C(=O)O

Test system: CEM cells HIV-1 protection, formazan growth assay
Assay: NCI AIDS Antiviral Assay
Conditions: for IC50: measured here: growth of uninfected CEM cells
How it was run: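 Human CEM cells, uninfected and HIV-1-infected, exposed to five drug concentrations; growth measured by soluble formazan assay and scored as percent protection from infection, with protecting compounds retested.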

| Compound | EC50 | IC50 | outcome |
| --- | --- | --- | --- |
| O=S1(=O)c2ccccc2C(c2ccccc2)(c2ccccc2)N1c1ccccc1 | > 75.9 µM | 55 µM |  |
| CCCCN1C=CN2c3nc4cc(C)c(C)cc4n3C(C(=O)OC)=C(C(=O)OC)C12 (stereo not drawn) |  |  | inactive |
| O=C(OC[C@H]1O[C@@H](OC(=O)c2cc(O)c(O)c(O)c2)[C@H](OC(=O)c2cc(O)c(O)c(O)c2)[C@@H](OC(=O)c2cc(O)c(O)c(O)c2)[C@@H]1OC(=O)c1cc(O)c(O)c(O)c1)c1cc(O)c(O)c(O)c1 | > 132 µM | 21.4 µM |  |
| CN1N=C(c2ccncc2)OC1c1ccc(Cl)c(Cl)c1 (stereo not drawn) | > 200 µM | 85.1 µM |  |
| CNC(=O)O/N=C1\N(C)CN(c2ccccc2)C12CCN(CCCC(=O)c1ccc(F)cc1)CC2 | > 200 µM | 105 µM |  |
| O=C(Nc1ccn(C2CCC(CO)O2)c(=O)n1)c1ccccc1 (stereo not drawn) | 0.741 µM | > 200 µM |  |
| CC(=O)OCCCCn1cnc2c(Cl)nc(Nc3ccccc3)nc21 | > 200 µM | > 200 µM |  |
| COC(=O)c1cc(C)ccc1/C=C1\Cc2cccc(C)c2C1=O | > 200 µM |  |  |
| COC(=O)c1c2n(c3ccccc13)C[C@H]1OC(C)(C)O[C@@H]21 | > 200 µM | 126 µM |  |
| O=S(=O)(O)C(O)CC(O)S(=O)(=O)O (stereo not drawn) | > 200 µM | 102 µM |  |
| CC1(C)OC2[C@@H](CO[C@@]3([C@H]4OC(C)(C)O[C@@H]4CO)OC(C)(C)O[C@@H]23)O1 (stereo partly drawn) | > 200 µM | > 200 µM |  |
| COc1ccc(C(=O)/C(=N/Nc2ccccc2)c2ccc(OC)cc2)cc1 |  |  | inactive |
| c1ccc2c(c1)c1c(n2CCOCCCN2CCCCC2)CCCC1 | > 200 µM | 5.37 µM |  |
| CN(C)C(=N)CSS(=O)(=O)O | 120 µM | 182 µM |  |
| O=C1/C(=C\c2cccc(Oc3ccccc3)c2)SC(c2ccccc2)N1c1cccc(Cl)c1 (stereo not drawn) | > 200 µM | 16.2 µM |  |
| O=C(CCc1n[nH]c(=S)o1)Nc1ccccc1C(F)(F)F | > 295 µM | 229 µM |  |
| CC(=O)N1CCC2(c3ccccc3N(C(C)=O)C2c2ccc(O)cc2)C1C(=O)O (stereo not drawn) |  |  | inactive |
| C=C(C)C(CC=C(C)C)Cc1c(O)cc(OC)c2c1OC(c1ccc(O)cc1O)C(O)C2=O (stereo not drawn) | > 200 µM | 29.5 µM |  |
| CC(C)N(CC(OC(=O)OC(C)(C)C)c1cc(OCc2ccccc2)c(OCc2ccccc2)cc1[N+](=O)[O-])C(=O)OC(C)(C)C (stereo not drawn) | > 100 µM | 30.2 µM |  |
| CC(C)(C)OC(=O)NC1CCC[C@H]1O (stereo partly drawn) |  |  | inactive |

| Compound | EC50 | IC50 | outcome |
| --- | --- | --- | --- |
| O=S(=O)([O-])c1ccc(C=Nc2ccccc2)c([O-])c1.O=S(=O)([O-])c1ccc(C=Nc2ccccc2)c([O-])c1.[Co+2] | > 407 µM | 95.5 µM |  |
| Cc1ccccc1C=C1C(=O)NC(=O)NC1=O | > 407 µM | > 407 µM |  |
| Cc1ccc(-n2[nH]nc(C#N)c2=O)cc1 | > 200 µM | > 200 µM |  |
| NC(C(=O)O)C(CC(=O)O)c1ccccc1 (stereo not drawn) | > 200 µM | 112 µM and > 200 µM |  |
| C=C1CC2[C@H](C)C(=O)CCC2(C)C2=C1C1CCC(C(C)CCC(=C)C(C)C(=O)O)C1(C)CC2=O (stereo partly drawn) | > 200 µM | 66.1 µM |  |
| CCOC(=O)/C(=C\c1ccc(Br)cc1)[Se]c1ccccc1 | > 63.1 µM | > 63.1 µM |  |
| CS(=O)(=O)c1ccc(-c2cc(-c3ccc(S(C)(=O)=O)cc3)[n+](-c3cc(-c4ccc(S(C)(=O)=O)cc4)c([O-])c(-c4ccc(S(C)(=O)=O)cc4)c3)c(-c3ccc(S(C)(=O)=O)cc3)c2)cc1 | > 7.59 µM | > 7.59 µM |  |
| COc1cccc2c1OC1Sc3ccccc3-c3nn(-c4ccccc4)c-2c31 (stereo not drawn) | > 7.08 µM | > 7.08 µM |  |
| NC(N)=NCCCC(NCc1c2ccccc2[n+]([O-])c2ccccc12)C(=O)O (stereo not drawn) |  |  | inactive |
| CCC(C)C1NC(=O)C2CCCN2C(=O)C(Cc2ccc(O)cc2)NC(=O)C(CC(N)=O)NC(=O)C(CCC(N)=O)NC(=O)C(CO)NC(=O)C(C(C)C)NC(=O)C(N)CSSCC(C(=O)O)NC(=O)C(CCC(N)=O)NC(=O)C(C(C)C)NC1=O (stereo not drawn) (H-CVSQNYPIVQC-OH; disulfide 1-11; configuration not given here) | > 50.1 µM | > 50.1 µM |  |
| COCOCC1CCCN1CN1CCC[C@H]1COCOC (stereo partly drawn) | > 200 µM | 107 µM |  |
| CCCCCCCCCCC(O)C1CCC(C(O)CCC(O)C2CCC(CCCCCCC[C@H](O)CC3=C[C@@H](C)OC3=O)O2)O1 (stereo partly drawn) | > 7.76 µM | 0.00245 µM |  |
| O=c1[nH]c2ccc([N+](=O)[O-])cc2nc1/C=C(\O)c1ccccc1 | > 200 µM | > 200 µM |  |
| O=c1[nH]c(=O)n2c3c1ncn3CC=CC2 | > 35.5 µM | 17 µM |  |
| CC1C2CCC3(CCC4C5(C)CCCC4(CN(CCO)C5)C3C2)C1O (stereo not drawn) |  |  | inactive |
| Cc1cc(NS(=O)(=O)c2ccc(NC(=O)c3ccc4nc5ccccc5c(Nc5ccc(S(=O)(=O)N=C(N)N)cc5)c4c3)cc2)no1 | > 75.9 µM | 24.5 µM |  |
| COc1ccc(/C(C)=N\N)cc1 | > 200 µM | > 200 µM |  |
| CCCCCCCCCCCCCCC(O)C[N+](C)(CCO)CCO (stereo not drawn) | > 200 µM | 1.1 µM |  |
| O=C(Nc1ccc([N+](=O)[O-])cc1)N(c1cc(Cl)ccn1)C1CCCCC1 | > 200 µM | 11 µM |  |
| CC(O)CCC(=O)NCCS(=O)(=O)O (stereo not drawn) | > 200 µM | > 200 µM |  |

| Compound | EC50 | IC50 | outcome |
| --- | --- | --- | --- |
| CC(C)(C)NCc1c(C(=O)NCCO)[n+](=O)c2ccccc2n1[O-] | > 75.9 µM | > 75.9 µM |  |
| O=C([O-])C(=O)[N-]CCC[N-]C(=O)C(=O)[N-]CCC[N-]C(=O)C(=O)[O-].[Cu+2].[Cu+2].[Na+] | > 200 µM | 17 µM |  |
| c1ccc(C2N=NN(c3ccccc3)C2N2CCCCC2)cc1 (stereo not drawn) |  |  | inactive |
| O=C1CCC2SC1CCC2=O | > 200 µM | > 200 µM |  |
| CCCCCCCCCCCCCCCCOC[C@H](COC(c1ccccc1)(c1ccccc1)c1ccccc1)O[P+](=S)OC (stereo partly drawn) | > 100 µM | 57.5 µM |  |
| Cn1c2ccccc2c2nnc(N/N=C/c3ccc([N+](=O)[O-])o3)nc21 | > 200 µM | > 200 µM |  |
| CC(=O)c1sc2c(c1O)c(=O)n(-c1ccccc1)c(=S)n2-c1ccccc1 | > 240 µM | 70.8 µM |  |
| O=C(O)CCNC(=O)c1ccccc1SC(=O)CCCC[n+]1ccccc1 | 21.9 µM | > 200 µM |  |
| Cc1ccc([N+](=O)[O-])cc1NC(=O)C(=O)Cc1nc2ccc(C(=O)c3ccccc3)cc2[nH]c1=O | > 275 µM | 110 µM |  |
| C=Cc1ccc(C)[n+](C[Si](C)(C)O[Si](C)(C)C)c1 | > 617 µM | 309 µM |  |
| COc1cc(OC)nc(Nc2c(C#N)c3nc4ccccc4n3c3ccccc23)n1 | > 100 µM | > 100 µM |  |
| COC1OC(C)C(NC(=O)OCC(Cl)(Cl)Cl)C2OC(C)(C)OC12 (stereo not drawn) | > 331 µM | > 331 µM |  |
| Cc1cn(C2CC(N=[N+]=[N-])C(CO[Si](C)(C)C(C)(C)C)O2)c(=O)[nH]c1=O (stereo not drawn) | 7.08 µM | 66.1 µM |  |
| CCCCCCCCCCNCCSSCc1ccccc1 | > 200 µM | 8.91 µM |  |
| COc1ccc(C[C@H]2COC(=O)[C@@H]2Cc2ccc(OC)c(OC)c2)cc1OC | > 200 µM | 123 µM |  |
| C/C=C/C=Nc1c(C#N)c2n(c1C(=O)Nc1ccc(OC)cc1)CCC2 | > 200 µM | > 200 µM |  |
| COC(=O)C(CSc1ccc([N+](=O)[O-])cc1[N+](=O)[O-])NC(=O)CNC(=O)c1ccccc1 (stereo not drawn) (Bz-Gly-[ξC](Dnp)-OMe) | > 15.5 µM | > 15.5 µM |  |
| CC1=CC(=O)N(n2c(C)n[nH]c2=O)C1=O | > 200 µM | > 200 µM |  |
